Laboratory results taken from ChEMBL document CHEMBL4425178, “A convenient synthesis and screening of benzosuberone bearing 1,2,3-triazoles against Mycobacterium tuberculosis” (2016).
Converted amounts (≈) assume the structure as drawn.

Each compound was assayed on Mycobacterium tuberculosis (assay: Antimycobacterial activity against Mycobacterium tuberculosis H37Rv ATCC 27294 after 28 days by agar dilution assay). Details: H37Rv ATCC 27294, 672 h.
Assay type: functional

Row | SMILES | MIC [mg/L]
1 | c1ccc(-c2cn(C3CCCCc4ccccc43)nn2)nc1 (stereo not drawn) | 12.5 (≈ 43 µM)
2 | c1ccc(-c2cn(C3CCCCc4ccccc43)nn2)cc1 (stereo not drawn) | > 25
3 | c1ccc2c(c1)CCCCC2n1cc(-c2cc3ccccc3c3ccccc23)nn1 (stereo not drawn) | > 25
4 | CO[C@H]1/C=C/O[C@@]2(C)Oc3c(C)c(O)c4c(O)c(c(/C=N/N5CCN(C)CC5)c(O)c4c3C2=O)NC(=O)/C(C)=C\C=C\[C@H](C)[C@H](O)[C@@H](C)[C@@H](O)[C@@H](C)[C@H](OC(C)=O)[C@@H]1C [RIFAMPIN] | 0.2 (≈ 0.243 µM)
5 | CC(C)(C)c1ccc(-c2cn(C3CCCCc4ccccc43)nn2)cc1 (stereo not drawn) | 6.25 (≈ 18.1 µM)
6 | NNC(=O)c1ccncc1 [ISONIAZID] | 0.1 (≈ 0.729 µM)
7 | c1cncc(-c2cn(C3CCCCc4ccccc43)nn2)c1 (stereo not drawn) | 12.5 (≈ 43 µM)
8 | CC[C@@H](CO)NCCN[C@@H](CC)CO [ETHAMBUTOL] | 3.13 (≈ 15.3 µM)
9 | FC(F)(F)Oc1ccc(-c2cn(C3CCCCc4ccccc43)nn2)cc1 (stereo not drawn) | > 25
10 | Cc1ccc(-c2cn(C3CCCCc4ccccc43)nn2)cc1 (stereo not drawn) | > 25
11 | c1ccc2c(c1)CCCCC2n1cc(-c2ccsc2)nn1 (stereo not drawn) | > 25
12 | COc1ccc2cc(-c3cn(C4CCCCc5ccccc54)nn3)ccc2c1 (stereo not drawn) | > 25
13 | c1cc(-c2cn(C3CCCCc4ccccc43)nn2)cc(-c2cn(C3CCCCc4ccccc43)nn2)c1 (stereo not drawn) | 6.25 (≈ 12.5 µM)
14 | COc1cccc(-c2cn(C3CCCCc4ccccc43)nn2)c1 (stereo not drawn) | 3.12 (≈ 9.78 µM)
15 | CCc1ccc(-c2cn(C3CCCCc4ccccc43)nn2)cc1 (stereo not drawn) | > 25
16 | CCCCCc1ccc(-c2cn(C3CCCCc4ccccc43)nn2)cc1 (stereo not drawn) | > 25
17 | CCCCCCc1cn(C2CCCCc3ccccc32)nn1 (stereo not drawn) | 6.25 (≈ 21 µM)
18 | CCCc1ccc(-c2cn(C3CCCCc4ccccc43)nn2)cc1 (stereo not drawn) | > 25
